# Source: patent US8859508B2, “Application of 5-methyl-1,3-benzenediol or derivatives thereof in the preparation of medicines and functional foods for treatment or prevention of depression” (Kunming Institute of Botany, Chinese Academy of Sciences, priority 2007, dated 2014)
# “Also recorded” adds a separate entry of the source.
# Assays:
# CMS model mice = experiment: FST in chronic unpredictable mild stress (CMS) model mice; type: in vivo, mouse; details: for Immobility time (s) (mean ± SEM): oral once a day for 7 days
# Description: (§1) Kunming mice (Certificate Number: A4CXK(Chuan)2003-16) from the Institute of Experimental Animals, People's Hospital of Sichuan Province, were used. They were 3-4 weeks old at the beginning of experiments and weighed 25-30 g. ORG was prepared as described in Example 1. Animals were divided into experiment groups with different doses, a vehicle control group, and an imipramine group (Sigma, Batch No. 106k1588) as positive control.
# CMS model: The chronic mild stresses that Kunming mice were subjected to were reversal of circadian rhythm, continuous light, cold, damp bedding, tilt cages, food and water restriction, and restraint. […] The stress period lasted for 8 weeks. In the last week, ORG was administered orally once a day for 7 consecutive days. The behavioral test was carried out 30 min after the last administration. The parameter tested was immobility time in the FST and TST in the CMS model mice. The methods of FST and TST and data analysis were as described above.
# Kunming mice [1] = experiment: Elevated plus maze (EPM) test in mice; type: in vivo, mouse; details: i.p. 24 h and 5 h before test
# Description: as §1, with “the experiment” for “experiments”, “drug administration” for “experiment”, “doses of ORG,” for “doses,”, “a diazepam” for “an imipramine”, “(Jinyao Ltd. Co.,” for “(Sigma,”
# Elevated plus maze (EPM): The EPM had two open and two closed arms of equal size (30 cm long×5 cm wide). The two closed arms were connected by a central 5 cm×5 cm area. The whole maze was elevated to a height of 35 cm. ORG was administered i.p. 24 h and 5 h before the test started. Mice were individually placed in the center of the maze facing a closed arm. Each animal was tested for 5 min in a single session. The number of entrances into open arms, the number of entrances into closed arms, the total time spent in open arms, and the total time spent in closed arms were recorded; a standard of entry was defined as all limbs entering the arm. The number of entrances into open arms and time spent in open arms were the major indexes to evaluate the anxiety level of the animals, for the more entrances or time, the less the anxiety level.
# (§2) Data analysis: The results of the test are expressed as mean±SEM. One-way ANOVA was used followed by the LSD test with SPSS 11 software. The significance level was set at P<0.05.
# Kunming mice [2] = experiment: Morris water maze (MWM) in mice; type: in vivo, mouse
# Description: Kunming mice (Certificate Number: A4CXK(Chuan)2003-16) from the Institute of Experimental Animals, People's Hospital of Sichuan Province, were used. They were 3-4 weeks old at the beginning of the experiment and weighed 25-30 g. ORG was prepared as described in Example 1. Animals were divided into drug administration groups with fluoxetine or different doses of ORG and a vehicle control group. The drug administration groups received 1.75 mg/kg or 3.5 mg/kg of ORG or 15 mg/kg of fluoxetine. Animals received a single i.p. injection of drug or vehicle 30 min either after training every day or 30 min before the retention test on day 8.
# Morris water maze: The MWM was performed in a circular pool (100 cm in diameter and 36 cm in depth) with a hidden platform (10 cm×10 cm) that was approximately 1 cm below the water surface. The pool was surrounded by yellow curtains with different shaped markers hanging in each quadrant. The time spent to find the hidden platform and the trajectory of the mouse were recorded by computer. From days 1 to 7, mice were placed in the pool to find the fixed hidden platform. On day 8, the platform was removed and the time that the mouse spent in the target quadrant was counted in 1 min of free swimming.
# as §2
# [3] = Acute toxicity test of ORG in mice; type: in vivo; details: mouse, in vivo, 1750 mg/kg; acute toxicity test, Kunming mice, oral; read-out: median toxic dose (TD50)
# Description: (§3) Kunming mice (Certificate Number: A4CXK(Chuan)2003-16) from the Institute of Experimental Animals, People's Hospital of Sichuan Province, were used. They were 3-4 weeks old and at the beginning of the experiment and weighed 25-30 g. ORG was prepared as described in Example 1. ORG (1750 mg) was dissolved in 10 ml NS to give a concentration of 175 mg/ml. Mice were divided into two groups, the ORG group for evaluation was given ORG and a group was treated with NS for vehicle control. ORG and NS were given to each group orally at a volume of 0.1 ml/10 g.
# Kunming mice [4] = experiment: Acute toxicity test of ORG in mice; type: in vivo; details: mice, 1750 mg/kg oral
# Description: as §3
# rats = experiment: Subacute toxicity test of ORG in rats; type: in vivo
# Description: Rats (Certificate Number: A4CXK(Chuan)2003-16) from the Institute of Experimental Animals, People's Hospital of Sichuan Province, were used. Their weight was 250-300 g. ORG was prepared as described in Example 1.
# There was no significant difference between the two groups.
# [5] = 1750 mg/kg orally once per day for 14 consecutive days
compound,measurement,setting,value
"Cc1cc(O)cc(OC2OC(CO)C(O)C(O)C2O)c1 [ORG, orcinol-1-O-β-D-glucopyranoside]",therapeutic index (TI) = TD50÷ED50,CMS model mice; CMS mice,> 2160
same,Immobility time (s) (mean ± SEM),"CMS model mice; CMS mice, 2.5 mg/kg",177.00 ± 11.78 s
same,Immobility time (s) (mean ± SEM),"CMS model mice; CMS mice, 5 mg/kg",177.50 ± 12.39 s
same,Immobility time (s) (mean ± SEM),"CMS model mice; CMS mice, 10 mg/kg",170.84 ± 10.48 s
same,Immobility time (s) (mean ± SEM),"CMS model mice; CMS mice, 20 mg/kg",164.95 ± 11.36 s
same,Immobility time (s) (mean ± SEM),"CMS model mice; CMS mice, test 30 min after last dose, 1.25 mg/kg",190.90 ± 12.94 s
same,best dose for the antidepressant effect,"CMS model mice; CMS model mice, ORG oral",20 mg/kg
same,ED50,"CMS model mice; Mus musculus, CMS model mice, ORG oral",0.81 mg/kg
same,Number of entries into open arms (mean ± SEM),Kunming mice [1]; 5 mg/kg,4.50 ± 0.58
same,Total time spent in the open arms (s) (mean ± SEM),Kunming mice [1]; 5 mg/kg,50.00 ± 8.99 s
same,Number of entries into open arms (mean ± SEM),Kunming mice [1]; 20 mg/kg,1.80 ± 0.79
same,Total time spent in the open arms (s) (mean ± SEM),Kunming mice [1]; 20 mg/kg,16.50 ± 3.60 s
same,Number of entries into open arms (mean ± SEM),Kunming mice [1]; 100 mg/kg,5.90 ± 0.57
same,Total time spent in the open arms (s) (mean ± SEM),Kunming mice [1]; 100 mg/kg,70.60 ± 11.56 s
same,Time spent in the right quadrant (s) (mean ± SEM),"Kunming mice [2]; i.p. 30 min before retrieval on day 8, 1.75 mg/kg",29.38 ± 2.16 s
same,Time spent in the right quadrant (s) (mean ± SEM),"Kunming mice [2]; i.p. 30 min before retrieval on day 8, 3.5 mg/kg",35.52 ± 2.43 s
same,Time spent in the right quadrant (s) (mean ± SEM),"Kunming mice [2]; i.p. daily 30 min after training, retention test day 8, 1.75 mg/kg",28.18 ± 1.70 s
same,Time spent in the right quadrant (s) (mean ± SEM),"Kunming mice [2]; i.p. daily 30 min after training, retention test day 8, 3.5 mg/kg",34.24 ± 2.01 s
same,TD50,[3],> 1750 mg/kg
same,acute toxicity: survival,Kunming mice [4]; 14 days,All mice survived
same,acute toxicity: weight gain,Kunming mice [4]; 14 days,the weight gain was normal
same,"acute toxicity: appearance, behavior, mental status, appetite, hair, color, breathing (ethological investigation)","Kunming mice [4]; observed for 14 days, 1750 mg/kg",did not find abnormalities; also recorded: nothing abnormal was found
same,acute toxicity: pathological section of visceral organs,Kunming mice [4]; sacrificed on day 14,no evident abnormalities
same,"subacute toxicity: appearance, behavior, mental status, appetite, hair, color, breathing",rats; [5],nothing abnormal was found
same,subacute toxicity: survival,rats; [5],All rats survived
same,subacute toxicity: weight gain,rats; [5],the weight gain was normal
same,subacute toxicity: pathological section of visceral organs,"rats; 1750 mg/kg orally once per day for 14 days, sacrificed on day 14",no evident abnormalities
